The values below come from ChEMBL document CHEMBL1649565, “Besifloxacin, a novel fluoroquinolone, has broad-spectrum in vitro activity against aerobic and anaerobic bacteria” (Antimicrob Agents Chemother, 2009).

In general, MIC50 refers to an inhibitory concentration at the 50% level, which refers to growth in some studies and to a panel of isolates in others. The MIC90 is an inhibitory concentration at the 90% level, which refers to growth in some studies and to a panel of isolates in others. High values mean lower susceptibility, low ones higher susceptibility.

≈ marks a conversion by molar mass, not a printed value. Calls of active or inactive are those of the source. The calls are words filed in the database; no cut-off is given here.

Series [1] relates to Fusobacterium sp. Put plainly: Antibacterial activity against Fusobacterium sp. by CLSI M11-A7 method. In kind it is functional.
Series [2] concerns Peptostreptococcus sp. Put plainly: Antibacterial activity against Peptostreptococcus sp. assessed as percent susceptible isolates by CLSI M11-A7 method. It counts as functional.
The nature of series [3]: Drug concentration in human tears at 0.6% administered topically as single dose measured after 24 hrs. The conditions noted are these: topical or ocular, read-out: Drug uptake. It counts as ADME.
The nature of series [4]: Drug concentration in human tears at 0.6% administered topically as single dose measured after 10 mins. It counts as ADME. The conditions noted are these: topical or ocular, read-out: Drug uptake.
Series [5] concerns Clostridium perfringens. In words: Antibacterial activity against Clostridium perfringens by CLSI M11-A7 method. In kind it is functional.
The subject of series [6] is Bacteroides fragilis. In words: Antibacterial activity against Bacteroides fragilis assessed as percent susceptible isolates by CLSI M11-A7 method. It counts as functional.
In series [7] the test system is Cutibacterium acnes. Put plainly: Antibacterial activity against Propionibacterium acnes assessed as percent susceptible isolates by CLSI M11-A7 method. In kind it is functional.
Series [8] has as its system Cutibacterium acnes. In words: Antibacterial activity against Propionibacterium acnes by CLSI M11-A7 method. In kind it is functional.
In series [9] the test system is Prevotella sp. Put plainly: Antibacterial activity against Prevotella sp. by CLSI M11-A7 method. It counts as functional.
The test system of series [10] is Fusobacterium sp. In words: Antibacterial activity against Fusobacterium sp. assessed as percent susceptible isolates by CLSI M11-A7 method. It counts as functional.
Series [11] concerns Prevotella sp. Put plainly: Antibacterial activity against Prevotella sp. assessed as percent susceptible isolates by CLSI M11-A7 method. It counts as functional.
For series [12], the system named is Neisseria meningitidis. Put plainly: Antibacterial activity against Neisseria meningitidis assessed as percent susceptible isolates by CLSI M7-A7 method. In kind it is functional.
For series [13], the system named is Enterococcus faecalis. Put plainly: Antibacterial activity against vancomycin- resistant Enterococcus faecalis assessed as percent susceptible isolates by CLSI M100-S18 method. In kind it is functional.
The test system of series [14] is Klebsiella oxytoca. Put plainly: Antibacterial activity against Klebsiella oxytoca assessed as percent susceptible isolates by CLSI M7-A7 method. It counts as functional.
Series [15] concerns Citrobacter koseri. In words: Antibacterial activity against Citrobacter koseri assessed as percent susceptible isolates by CLSI M7-A7 method. It counts as functional.
Series [16] has as its system Morganella morganii. In words: Antibacterial activity against Morganella morganii assessed as percent susceptible isolates by CLSI M7-A7 method. It counts as functional.
Series [17] in a line: Antibacterial activity against Lancefield Streptococcus sp. 'group C' assessed as percent susceptible isolates by CLSI M100-S18 method. In kind it is functional.

Turning to `N[C@@H]1CCCCN(c2c(F)cc3c(=O)c(C(=O)O)cn(C4CC4)c3c2Cl)C1` [BESIFLOXACIN], the MIC50 came out at 0.25 µg/mL (≈ 0.635 µM) in [1], 0.25 µg/mL (≈ 0.635 µM) in series [5], 0.25 µg/mL (≈ 0.635 µM) in series [8] and 1 µg/mL (≈ 2.54 µM) in series [9]. Moreover, the MIC90 turned out to be 1 µg/mL (≈ 2.54 µM) in series [1], 0.25 µg/mL (≈ 0.635 µM) in series [5], 0.25 µg/mL (≈ 0.635 µM) in series [8] and 4 µg/mL (≈ 10.2 µM) in series [9]. Besides, the outcome in series [2], in [6], in series [7], in [10] and in [11] was inactive. Moreover, the concentration at 24 h in series [3] was determined as 1.6 µg/mL. The concentration at 10 min in series [4] is 610 µg/mL.
For the molecule `C[C@H]1COc2c(N3CCN(C)CC3)c(F)cc3c(=O)c(C(=O)O)cn1c23.C[C@H]1COc2c(N3CCN(C)CC3)c(F)cc3c(=O)c(C(=O)O)cn1c23.O` [LEVOFLOXACIN], the Activity in series [12] turned out to be 100%; in series [13], 58.5%; in [14], 90%; in series [15] it was 99%; in [16], 76.5%.
Regarding `NC[C@H]1O[C@H](O[C@H]2[C@H](O)[C@@H](O[C@H]3O[C@H](CO)[C@@H](O)[C@H](N)[C@H]3O)[C@H](N)C[C@@H]2N)[C@H](N)C[C@@H]1O` [TOBRAMYCIN], in [17], the Activity worked out at 74%.
